Where a name gives a salt, the structure may show the parent alone.
Assay: aqueous solubility
Format: physicochemical
Details: crystalline Form N-2 of the dihydrochloride salt

- aqueous solubility: high
SMILES: COC(=O)N[C@H](C(=O)N1CCC[C@H]1c1nc(-c2ccc(-c3ccc(-c4c[nH]c([C@@H]5CCCN5C(=O)[C@@H](NC(=O)OC)C(C)C)n4)cc3)cc2)c[nH]1)C(C)C [Compound (I), methyl ((1S)-1-(((2S)-2-(5-(4′-(2-((2S)-1-((2S)-2-((methoxycarbonyl)amino)-3-methylbutanoyl-2-pyrrolidinyl)-1H-imidazol-5-yl)-4-biphenylyl)-1H-imidazol-2-yl)-1-pyrrolidinyl)carbonyl)-2-methylpropyl)carbamatedihydrochloride salt]

From patent publication US8629171B2, “Crystalline form of methyl ((1S)-1-((25)-2-(5-(4'-(2-((25)-1((2S)-2-((methoxycarbonyl)amino)-3-methylbutanoyl)-2-pyrrolidinyl)-1H-imidazol-2-yl)-1-pyrrolidinyl)carbonyl)-2-methylpropyl)carbamate dihydrochloride salt” (Bristol-Myers Squibb Company, priority 2007, dated 2014)
